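The compound was tested at five concentrations on cells cultured in 96-well plates, with a 48-hour exposure period. TGI is the concentration that stops growth completely.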
Key:
Assay in all cases: NCI tumour cell line growth inhibition, 48 h
[1] = tested on: SW-620 colon
[2] = tested on: K-562 leukemia
[3] = tested on: HCC-2998 colon
[4] = tested on: DLD-1 colon
[5] = tested on: UACC-257 melanoma
[6] = tested on: KM12 colon
[7] = tested on: SNB-78 CNS
[8] = tested on: PC-3 prostate
[9] = tested on: TK-10 renal
[10] = tested on: MDA-MB-231 breast
[11] = tested on: SK-MEL-28 melanoma
[12] = tested on: MDA-MB-435
[13] = tested on: NCI-H460 lung
[14] = tested on: HCT-116 colon
[15] = tested on: DMS 114 small cell lung
[16] = tested on: A549 NSCLC
[17] = tested on: M14 melanoma
[18] = tested on: SF-295 CNS
[19] = tested on: UO-31 renal
[20] = tested on: HOP-62 NSCLC
[21] = tested on: M19-MEL melanoma
[22] = tested on: IGROV1 ovarian
[23] = tested on: OVCAR-4 ovarian
[24] = tested on: U251 CNS
[25] = tested on: HCT-15 colon
[26] = tested on: EKVX NSCLC
[27] = tested on: OVCAR-5 ovarian
[28] = tested on: A498 renal
[29] = tested on: SNB-19 CNS
[30] = tested on: ACHN renal
[31] = tested on: RPMI-8226 leukemia
[32] = tested on: CAKI-1 renal
[33] = tested on: XF 498 CNS
[34] = tested on: SN12C renal
[35] = tested on: SK-MEL-5 melanoma
[36] = tested on: OVCAR-3 ovarian
[37] = tested on: BT-549 breast
[38] = tested on: SF-268 CNS
[39] = tested on: SK-OV-3 ovarian
[40] = tested on: HL-60(TB) leukemia
[41] = tested on: SF-539 CNS
[42] = tested on: LOX IMVI melanoma
[43] = tested on: HOP-18 NSCLC
[44] = tested on: HT29 colon
[45] = tested on: MALME-3M melanoma
[46] = tested on: LXFL 529 NSCLC
[47] = tested on: HS 578T breast
[48] = tested on: NCI-H226 lung
[49] = tested on: HOP-92 NSCLC
[50] = tested on: OVCAR-8 ovarian
[51] = tested on: DU-145 prostate
[52] = tested on: 786-0 renal
[53] = tested on: UACC-62 melanoma
[54] = tested on: MDA-N
[55] = tested on: NCI-H23 lung
[56] = tested on: DMS 273 small cell lung
[57] = tested on: MOLT-4 leukemia
[58] = tested on: NCI/ADR-RES ovarian
[59] = tested on: NCI-H522 lung
[60] = tested on: SNB-75 CNS
[61] = tested on: SK-MEL-2 melanoma
[62] = tested on: T-47D breast
[63] = tested on: MCF7 breast
[64] = tested on: KM20L2 colon
[65] = tested on: CCRF-CEM leukemia
[66] = tested on: COLO 205 colon
[67] = tested on: RXF 393 renal

Structure (SMILES): CN(C)CCNc1ccc2ncn3c4ccc(O)cc4c(=O)c1c23
- TGI [1]: 11.8 µM
- TGI [2]: 29 µM
- TGI [3]: 12.7 µM
- TGI [4]: 16.1 µM
- TGI [5]: 19.7 µM
- TGI [6]: > 35.7 µM
- TGI [7]: 21.4 µM
- TGI [8]: 10.8 µM
- TGI [9]: 21.8 µM
- TGI [10]: 5.44 µM
- TGI [11]: 18 µM
- TGI [12]: 14.7 µM
- TGI [13]: 6.5 µM
- TGI [14]: 11.5 µM
- TGI [15]: 16.8 µM
- TGI [16]: 4.26 µM
- TGI [17]: 8.47 µM
- TGI [18]: 14 µM
- TGI [19]: 8.06 µM
- TGI [20]: 5.35 µM
- TGI [21]: 13.1 µM
- TGI [22]: 8.87 µM
- TGI [23]: 4.89 µM
- TGI [24]: 3.97 µM
- TGI [25]: 10.2 µM
- TGI [26]: 17.5 µM
- TGI [27]: 15 µM
- TGI [28]: 8.04 µM
- TGI [29]: 17.2 µM
- TGI [30]: 4.6 µM
- TGI [31]: 13.1 µM
- TGI [32]: 4.83 µM
- TGI [33]: 17.1 µM
- TGI [34]: 13.3 µM
- TGI [35]: 8.52 µM
- TGI [36]: 13.4 µM
- TGI [37]: 28.1 µM
- TGI [38]: 10.7 µM
- TGI [39]: 17 µM
- TGI [40]: 13.6 µM
- TGI [41]: 14.7 µM
- TGI [42]: 3.36 µM
- TGI [43]: 49.6 µM
- TGI [44]: 7.39 µM
- TGI [45]: 14.4 µM
- TGI [46]: 14.6 µM
- TGI [47]: 8.19 µM
- TGI [48]: 3.47 µM
- TGI [49]: 13.8 µM
- TGI [50]: 7.76 µM
- TGI [51]: 10.8 µM
- TGI [52]: 13.3 µM
- TGI [53]: 15.9 µM
- TGI [54]: 15.1 µM
- TGI [55]: 10.9 µM
- TGI [56]: 12.4 µM
- TGI [57]: 10.5 µM
- TGI [58]: 18.9 µM
- TGI [59]: 5.68 µM
- TGI [60]: 10.2 µM
- TGI [61]: 13 µM
- TGI [62]: 25 µM
- TGI [63]: 4.91 µM
- TGI [64]: 12.9 µM
- TGI [65]: 15.3 µM
- TGI [66]: 9.32 µM
- TGI [67]: 2.58 µM

From PubChem BioAssay (NCI)
